Test results: patent US12390474B2, “Immediate release multilayer tablet” (priority 2020, dated 2025)

Tests used:
[1] = Chemical compatibility of olanzapine and samidorphan L-malate, stability at 40° C./75% RH by HPLC; type: physicochemical; conditions: for Percentage Related Compound B Impurity: 40° C./75% RH, ND: ≤LOD (0.02 wt %), LOQ: 0.05 wt %; for Percentage Total Impurities: 40° C./75 RH
Description: Samples in 20 ml Wheaton scintillation vials were stored at 40° C./75% RH in open and closed vial configurations. Closed vials were vials closed with a urea cap and wrapped using parafilm under ambient conditions. The contents of the vials were tested at the start of the study and after 2, 6 and 12 weeks. At each time point samples were analysed by reversed phase HPLC (Waters ACQUITY UPLC H-Class System) with ACQUITY PDA Detector using a Waters ACQUITY UPLC CSH C18 Column, 3 mm×100 mm, and a gradient elution of acetate buffer pH 5.1 and 50/50 (v/v) acetonitrile/methanol.

[2] = cited from earlier work
[3] = Particle size distribution of samidorphan L-malate; type: physicochemical
Excerpt: The particle size distribution of the samidorphan or samidorphan pharmaceutically acceptable salt (e.g., L-malate) present in a disclosed tablet (e.g., as part of a first tablet layer) may be for example, a (D10) of between about 10 μm to about 80 μm, a (D50) of between about 40 μm to about 200 μm and a (D90) of between about 100 μm to about 300 μm, more preferably a D10 of between about 25 μm and about 50 μm; the D50 of between about 60 μm and about 100 μm. In some embodiments, D90 of the samidorphan (e.g., L-malate salt) is between about 120 μm and about 175 μm. […] Particle size (diameter) may be determined by conventional techniques such as dynamic light scattering. The ‘Dx’ nomenclature means that ‘x’ percent of the particles have a number average diameter (‘D’) less than or equal to the reported value when measured by static or dynamic light scattering techniques known to those skilled in the art. (e.g. D10=175 μm, means that 10% of particles have a number average diameter of less than or equal to 175 μm), a D50 (or Dv50) of less than 300 μm, means that 50% of the particle population has a diameter of less than or equal to 300 μm. The term “Dx” as used herein refers to a volume based size and is equivalent to the term “DvX” commonly used to characterize particle sizes. Since the particles of the present invention may be irregular in shape, an approximation of the particle size is made on the basis of the volume-based particle size, which specifies the diameter of the sphere that has same volume as a given particle. Unless otherwise specified, all particle sizes are specified in terms of volume-based measurements and are measured by laser light scattering/diffraction. Particle sizes are then determined based on Mie scattering theory.
For samidorphan L-malate, a recrystallization process was implemented providing particle size control during manufacturing to intentionally target a particle size distribution similar to the size of the drug product filler excipients. Unmilled and recrystallized grades of samidorphan L-malate were characterized for particle size distribution using 3 unique lots of each. The recrystallization was targeted to produce material with less fine particles thus increasing the D10. A slight increase in the D50 and decrease in the D90 adjusted the centerpoint of the distribution and decreased the overall span of the distribution. Overall the recrystallized materials had tighter distributions and reduced lot to lot variability, indicating better control. No change in the solid state form was observed between unmilled and recrystallized samidorphan L-malate as assessed by PXRD spectral comparison.

Cc1cc2c(s1)Nc1ccccc1N=C2N1CCN(C)CC1 [Olanzapine, 2-methyl-4-(4-methyl-1-piperazinyl)-10H-thieno[2,3-b][1,5]benzodiazepine]
Percentage Related Compound B Impurity ([1]; INITIAL): 0.01 wt %
Percentage Related Compound B Impurity ([1]; OPEN vial, 2 WEEK): <LOQ
Percentage Total Impurities ([1]; CLOSED vial, 2 WEEK): 0.00%
Percentage Total Impurities ([1]; CLOSED vial, 6 WEEK): 0.00%
Percentage Total Impurities ([1]; CLOSED vial, 12 WEEK): 0.00%
Percentage Total Impurities ([1]; INITIAL): 0.00%
Percentage Total Impurities ([1]; OPEN vial, 2 WEEK): 0.00%
Percentage Total Impurities ([1]; OPEN vial, 6 WEEK): 0.00%
Percentage Total Impurities ([1]; OPEN vial, 12 WEEK): 0.00%

NC(=O)c1ccc2c(c1O)[C@]13CCN(CC4CC4)[C@H](C2)[C@]1(O)CCC(=O)C3.O=C(O)C[C@H](O)C(=O)O [Samidorphan L-malate, morphinan-3-carboxamide, 17-(cyclopropylmethyl)-4, 14-dihydroxy6-oxo-, (2S)-2-hydroxybutanedioate]
Percentage Total Impurities ([1]; CLOSED vial, 2 WEEK): 0.00%
Percentage Total Impurities ([1]; CLOSED vial, 6 WEEK): 0.00%
Percentage Total Impurities ([1]; CLOSED vial, 12 WEEK): 0.00%
Percentage Total Impurities ([1]; INITIAL): 0.00%
Percentage Total Impurities ([1]; OPEN vial, 2 WEEK): 0.00%
Percentage Total Impurities ([1]; OPEN vial, 6 WEEK): 0.00%
Percentage Total Impurities ([1]; OPEN vial, 12 WEEK): 0.00%
pKa (amine) [2]: 8.3
pKa (phenol) [2]: 10.1

NC(=O)c1ccc2c(c1O)[C@]13CCN(CC4CC4)[C@H](C2)[C@]1(O)CCC(=O)C3.O=C(O)C[C@H](O)C(=O)O [Sample number 1]
Particle size D10 ([3]; listed as 1): 8 μm
Particle size D50 ([3]; listed as 1): 37 μm
Particle size D90 ([3]; listed as 1): 223 μm

NC(=O)c1ccc2c(c1O)[C@]13CCN(CC4CC4)[C@H](C2)[C@]1(O)CCC(=O)C3.O=C(O)C[C@H](O)C(=O)O [Sample number 2]
Particle size D10 ([3]; listed as 2): 10 μm
Particle size D50 ([3]; listed as 2): 36 μm
Particle size D90 ([3]; listed as 2): 231 μm

NC(=O)c1ccc2c(c1O)[C@]13CCN(CC4CC4)[C@H](C2)[C@]1(O)CCC(=O)C3.O=C(O)C[C@H](O)C(=O)O [Sample number 3]
Particle size D10 ([3]; listed as 3): 6 μm
Particle size D50 ([3]; listed as 3): 28 μm
Particle size D90 ([3]; listed as 3): 243 μm

NC(=O)c1ccc2c(c1O)[C@]13CCN(CC4CC4)[C@H](C2)[C@]1(O)CCC(=O)C3.O=C(O)C[C@H](O)C(=O)O [Sample number 4]
Particle size D10 ([3]; listed as 4): 33 μm
Particle size D50 ([3]; listed as 4): 73 μm
Particle size D90 ([3]; listed as 4): 130 μm

NC(=O)c1ccc2c(c1O)[C@]13CCN(CC4CC4)[C@H](C2)[C@]1(O)CCC(=O)C3.O=C(O)C[C@H](O)C(=O)O [Sample number 5]
Particle size D10 ([3]; listed as 5): 46 μm
Particle size D50 ([3]; listed as 5): 90 μm
Particle size D90 ([3]; listed as 5): 160 μm

NC(=O)c1ccc2c(c1O)[C@]13CCN(CC4CC4)[C@H](C2)[C@]1(O)CCC(=O)C3.O=C(O)C[C@H](O)C(=O)O [Sample number 6]
Particle size D10 ([3]; listed as 6): 42 μm
Particle size D50 ([3]; listed as 6): 90 μm
Particle size D90 ([3]; listed as 6): 165 μm
